This is an account of results in EP4623702A1, “ORAL PRODUCT” (Nicoventures Trading Limited, priority 2024, dated 2025).

Data set [1] has as its target P-gp (MDR1, ABCB1), human (Homo sapiens, UniProt P08183). Nature of the data set: in vitro. Particulars: dog, MDCK-MDR1, pH 7.4.
For data set [2], the target named is T1, MDCK-MDR1 cell line heterologously expressing the human P-gp transporter (MDR1) (Homo sapiens, UniProt P08183). Particulars: for effect of quercetin on BBB permeability of the compound: MDCK-MDR1.
The target in data set [3] is T1, MDCK-MDR1 cell line heterologously expressing the human P-gp transporter (MDR1). Nature of the data set: MDCK-MDR1 permeability assay (in vitro model for BBB permeation, P-gp substrate identification, with/without inhibitors). Particulars: Compound Alone; apical to basolateral; 1 or 10 µM, 60 minutes, pH 7.4 (Table 2).
Data set [4] has the same target. Kind of data set: in vitro. Particulars: dog, MDCK-MDR1, pH 7.4.
The next data set concerns the target p-glycoprotein (Homo sapiens, UniProt P08183). Particulars: value stated as basis for the 30 µM inhibitor concentration; no source given; cited from earlier work.

Where two headings read alike, the source gives them in different places. Bounds are passed on as bounds.

T1 sequence (P08183 whole entry): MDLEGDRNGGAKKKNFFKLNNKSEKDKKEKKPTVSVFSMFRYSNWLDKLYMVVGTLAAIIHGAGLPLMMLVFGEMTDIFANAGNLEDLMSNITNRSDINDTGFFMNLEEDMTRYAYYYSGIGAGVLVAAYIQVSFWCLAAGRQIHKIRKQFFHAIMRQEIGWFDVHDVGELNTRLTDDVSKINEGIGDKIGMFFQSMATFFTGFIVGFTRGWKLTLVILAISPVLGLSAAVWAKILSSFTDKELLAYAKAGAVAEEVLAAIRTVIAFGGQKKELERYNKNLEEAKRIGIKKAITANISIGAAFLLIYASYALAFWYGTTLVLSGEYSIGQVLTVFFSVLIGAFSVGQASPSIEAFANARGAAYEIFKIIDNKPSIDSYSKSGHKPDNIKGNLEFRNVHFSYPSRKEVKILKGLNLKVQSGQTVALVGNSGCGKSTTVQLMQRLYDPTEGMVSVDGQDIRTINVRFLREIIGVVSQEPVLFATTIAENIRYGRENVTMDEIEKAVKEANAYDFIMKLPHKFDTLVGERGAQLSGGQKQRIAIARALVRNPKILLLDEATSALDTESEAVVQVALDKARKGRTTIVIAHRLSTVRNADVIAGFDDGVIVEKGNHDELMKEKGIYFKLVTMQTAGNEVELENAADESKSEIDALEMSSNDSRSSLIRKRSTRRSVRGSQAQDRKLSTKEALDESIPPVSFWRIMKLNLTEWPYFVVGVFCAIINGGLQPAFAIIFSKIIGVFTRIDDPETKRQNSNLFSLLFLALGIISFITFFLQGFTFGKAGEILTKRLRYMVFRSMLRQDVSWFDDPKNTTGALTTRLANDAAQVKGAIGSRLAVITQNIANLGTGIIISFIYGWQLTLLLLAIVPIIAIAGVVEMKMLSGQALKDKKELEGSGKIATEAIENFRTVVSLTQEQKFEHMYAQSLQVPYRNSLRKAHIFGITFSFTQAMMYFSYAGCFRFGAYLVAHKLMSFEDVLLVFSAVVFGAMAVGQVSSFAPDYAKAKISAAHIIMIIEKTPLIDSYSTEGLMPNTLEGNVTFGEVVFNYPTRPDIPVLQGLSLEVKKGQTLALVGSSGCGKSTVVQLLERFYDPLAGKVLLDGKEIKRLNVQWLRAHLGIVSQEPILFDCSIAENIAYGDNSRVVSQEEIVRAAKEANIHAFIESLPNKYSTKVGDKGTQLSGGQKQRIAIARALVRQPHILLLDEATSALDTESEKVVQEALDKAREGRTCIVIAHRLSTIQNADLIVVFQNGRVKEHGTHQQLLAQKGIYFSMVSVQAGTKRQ
P-gp (MDR1, ABCB1), human, sequence (P08183 whole entry): as above
p-glycoprotein, sequence (P08183 whole entry): as above

As for `CC(/C=C/C=C(\C)C(=O)O[C@@H]1O[C@H](CO[C@@H]2O[C@H](CO)[C@@H](O)[C@H](O)[C@H]2O)[C@@H](O)[C@H](O)[C@H]1O)=C\C=C\C=C(C)\C=C\C=C(/C)C(=O)O[C@@H]1O[C@H](CO[C@@H]2O[C@H](CO)[C@@H](O)[C@H](O)[C@H]2O)[C@@H](O)[C@H](O)[C@H]1O` [Crocin], in data set [1], the Papp A→B at 60 min worked out at 0.22 ×10⁻⁶ cm/s, the Papp B→A at 60 min amounted to 3.12 ×10⁻⁶ cm/s and the Papp at 60 min is < 1 ×10⁻⁶ cm/s. The “A2B Apparent permeability (Papp)” value in data set [2] (dog, MDCK-MDR1, 60 min, pH 7.4) turned out to be 0.22 ×10⁻⁶ cm/s.
For the molecule `CC1(C)CC[C@]2(C(=O)O)CC[C@]3(C)C(=CC[C@@H]4[C@@]5(C)CC[C@H](O)C(C)(C)[C@@H]5CC[C@]43C)[C@@H]2C1` [Oleanoic acid, Oleanolic acid], in data set [1], the Papp A→B at 60 min amounted to 0.174 ×10⁻⁶ cm/s, the Papp B→A at 60 min was 0.35 ×10⁻⁶ cm/s and the Papp at 60 min was < 1 ×10⁻⁶ cm/s. In addition, the “A2B Apparent permeability (Papp)” value in data set [3] was determined as 0.174 ×10⁻⁶ cm/s.
In data set [4], `CC1=C(C=O)C(C)(C)CC=C1` [Safranal] gave a Papp A→B at 1 h of 90 ×10⁻⁶ cm/s and an apparent permeability from basolateral to apical (Papp B→A) at 1 h of 43.3 ×10⁻⁶ cm/s.
`CC1=C(C)C(=O)O[C@@H]([C@@H](C)[C@H]2CC[C@H]3[C@@H]4[C@@H]5O[C@@H]5[C@@]5(O)CC=CC(=O)[C@]5(C)[C@H]4CC[C@]23C)C1` [Withanolide B]: in data set [4], the Papp A→B at 1 h was determined as 12 ×10⁻⁶ cm/s and the Papp B→A at 1 h amounted to 13.3 ×10⁻⁶ cm/s. Also, in data set [2] (MDCK-MDR1, pH 7.4), the “A2B Apparent permeability (Papp)” value is 13.5 ×10⁻⁶ cm/s and the “B2A Apparent permeability (Papp)” value turned out to be 11.6 ×10⁻⁶ cm/s.
In data set [1], `CC1=C(C)C(=O)O[C@@H]([C@@H](C)[C@@]2(O)CC[C@H]3[C@@H]4[C@@H]5O[C@@H]5[C@@]5(O)CC=CC(=O)[C@]5(C)[C@H]4CC[C@@]32C)C1` [Withanone] returned a Papp A→B of 1.23 ×10⁻⁶ cm/s and a Papp B→A of 31.6 ×10⁻⁶ cm/s. Also, in data set [2], the “effect of quercetin on BBB permeability of the compound” value was “did not, for instance, significantly enhance”. In data set [2] (dog, MDCK-MDR1, pH 7.4), the “B2A Apparent permeability (Papp)” value came to 19.7 ×10⁻⁶ cm/s.
`CC(/C=C/C=C(\C)C(=O)O)=C\C=C\C=C(C)\C=C\C=C(/C)C(=O)O` [Crocetin]: in data set [1], the Papp A→B at 60 min amounted to 1.67 ×10⁻⁶ cm/s, the Papp B→A at 60 min was 5.84 ×10⁻⁶ cm/s and the Papp at 60 min lay in the range of 1 to 10 ×10⁻⁶ cm/s. Besides, the “A2B Apparent permeability (Papp)” value in data set [2] (dog, MDCK-MDR1, 60 min, pH 7.4) was 1.67 ×10⁻⁶ cm/s.
`CC1=C(C)C(=O)O[C@@H]([C@](C)(O)[C@H]2CC[C@H]3[C@@H]4[C@@H]5O[C@@H]5[C@@]5(O)CC=CC(=O)[C@]5(C)[C@H]4CC[C@]23C)C1` [Withanolide A]: in data set [4], the Papp A→B at 1 h stood at 3.65 ×10⁻⁶ cm/s and the Papp B→A at 1 h is 22.2 ×10⁻⁶ cm/s. In data set [2], the “effect of quercetin on BBB permeability of the compound” value was “did not, for instance, significantly enhance”. Besides, in data set [2] (MDCK-MDR1, pH 7.4), the “A2B Apparent permeability (Papp)” value was 17.3 ×10⁻⁶ cm/s and the “B2A Apparent permeability (Papp)” value is 20 ×10⁻⁶ cm/s.
For `O=C(/C=C/C=C/c1ccc2c(c1)OCO2)N1CCCCC1` [Piperine, (2E,4E)-5-(2H-1,3-benzodioxol-5-yl)-1-(piperidin-1-yl)-penta-2,4-dien-1-one], the EC50 on p-glycoprotein was 30 µM.
In data set [1], `O=c1cc(-c2ccc(O)cc2)oc2cc(O)cc(O)c12` [Apigenin] came in with a Papp A→B at 60 min of 9.71 ×10⁻⁶ cm/s, a Papp B→A at 60 min of 19.1 ×10⁻⁶ cm/s and a Papp at 60 min of 1 to 10 ×10⁻⁶ cm/s. For the same molecule, the “A2B Apparent permeability (Papp)” value in data set [2] (dog, MDCK-MDR1, 60 min, pH 7.4) was determined as 9.71 ×10⁻⁶ cm/s.
In data set [4], `O=C(O)[C@H]1O[C@@H](Oc2cc(O)c3c(=O)cc(-c4ccc(O)c(O)c4)oc3c2)[C@H](O)[C@@H](O)[C@@H]1O` [Luteolin-7-glucoronide, Luteolin 7-glucuronide] registered a Papp A→B at 1 h of 0.205 ×10⁻⁶ cm/s and a Papp B→A at 1 h of 0.076 ×10⁻⁶ cm/s. Further, in data set [2] (MDCK-MDR1, pH 7.4), the “A2B Apparent permeability (Papp)” value worked out at 0.175 ×10⁻⁶ cm/s and the “B2A Apparent permeability (Papp)” value is 0.134 ×10⁻⁶ cm/s.
